SMILES strings stand for the structures.

The test system of the assay is HSV-1. In words: HSV infection of Vero 76 cells, viral DNA detected by hybridization capture with chemiluminescence. Type of assay: cell-based. The following applies: Human alphaherpesvirus 1; HSV-1 in Vero 76 cells, MOI=0.001, incubated 40–48 hours with test compound. On the procedure:
Vero 76 cells were maintained in MEM with Earle's salts, L-glutamine, 8% FBS (Hyclone, A-1111-L) and 100 units/mL Penicillin-100 μg/mL Streptomycin. For assay conditions, FBS was reduced to 2%. Cells are seeded into 96-well tissue culture plates at a density of 5×10^4 cells/well after being incubated for 45 min at 37° C. in the presence of HSV-1 or HSV-2 (MOI=0.001). Test compounds are added to the wells and the plates are incubated at 37° C. for 40–48 hours. Cell lysates are prepared as follows: media was removed and replaced with 150 μL/well 0.2 N NaOH with 1% Igepal CA 630 or NP-40. Plates were incubated up to 14 days at room temperature in a humidified chamber to prevent evaporation.
For the detection probe, a gel-purified, digoxigenin-labeled, 710-bp PCR fragment of the HSV UL-15 sequence was utilized. PCR conditions included 0.5 μM primers, 180 μM dTTP, 20 μM dUTP-digoxigenin (Boehringer Mannheim 1558706), 200 μM each of dATP, dCTP, and dGTP, 1×PCR Buffer II (Perkin Elmer), 2.5 mM MgCl2, 0.025 units/μL of AmpliTaq Gold polymerase (Perkin Elmer), and 5 ng of gel-purified HSV DNA per 100 μL Extension conditions were 10 min at 95° C., followed by 30 cycles of 95° C. for 1 min, 55° C. for 30 sec, and 72° C. for 2 min. The amplification was completed with a 10-min incubation at 72° C. Primers were selected to amplify a 728 bp probe spanning a section of the HSV1 UL15 open reading frame (nucleotides 249–977). Single-stranded transcripts were purified with Promega M13 Wizard kits. The final product was mixed 1:1 with a mixture of 6 M GuSCN, 100 mM EDTA and 200 μg/mL herring sperm DNA and stored at 4° C.
The capture DNA plasmid (HSV UL13 region in pUC) was linearized by cutting with XbaI, denatured for 15 min at 95° C. and diluted immediately into Reacti-Bind DNA Coating Solution (Pierce, 17250, diluted 1:1 with TE buffer, pH 8) at 1 ng/μL 75 μL/well were added to Corning (#3922 or 9690) white 96-well plates and incubated at room temperature for at least 4 hrs before washing twice with 300 μL/well 0.2×SSC/0.05% Tween-20 (SSC/T buffer). The plates were then incubated overnight at room temperature with 150 μL/well 0.2 N NaOH, 1% IGEPAL and 10 μg/mL herring sperm DNA.
Twenty-seven (27) μL of cell lysate was combined with 45 μL of hybridization solution (final concentration: 3M GuSCN, 50 mM EDTA, 100 μg/ml salmon sperm DNA, 5×Denhardt's solution, 0.25×APE, and 5 ng of the digoxigenin-labeled detection probe). APE is 1.5 M NH4-acetate, 0.15 M ammonium phosphate monobasic, and 5 mM EDTA adjusted to pH 6.0. Mineral oil (50 μL) was added to prevent evaporation. The hybridization plates were incubated at 95° C. for 10 minutes to denature the DNA, then incubated at 42° C. overnight. The wells were washed 6× with 300 μL/well SSC/T buffer then incubated with 75 μL/well anti-digoxigenin-HRP-conjugated antibody (Boehringer Mannheim 1207733, 1:5000 in TE) for 30 min at room temperature. The wells were washed 6× with 300 μL/well with PBS/0.05% Tween-20 before 75 μL/well SuperSignal LBA substrate (Pierce) was added. The plates were incubated at room temperature for 30 minutes and chemiluminescence was measured in a Wallac Victor reader.
Consider `Oc1ccc(-c2nc3c(NC4CCCC4)cccn3c2-c2ccnc(NC3CCCC3)n2)cc1` [Example 11, 4-{8-(Cyclopentylamino)-3-[2-(cyclopentylamino)-4-pyrimidinyl]imidazo[1,2-α]pyridin-2-yl}phenol], for which the midpoint of inhibition, the IC50, lay at 3.3 µM.
Then `O=[N+]([O-])c1cccc(-c2nc3c(Cl)cccn3c2-c2ccnc(NC3CCCC3)n2)c1` [Example 30, N-{4-[8-Chloro-2-(3-nitrophenyl)imidazo[1,2-α]pyridin-3-yl]-2-pyrimidinyl}-N-cyclopentylamine], with 1.6 µM.
In the case of `Nc1cccc(-c2nc3c(NC4CCCC4)cccn3c2-c2ccnc(NC3CCCC3)n2)c1` [Example 33, 2-(3-Aminophenyl)-N-cyclopentyl-3-[2-(cyclopentylamino)-4-pyrimidinyl]imidazo[1,2-α]pyridin-8-amine], the IC50 (commonly the point on the concentration scale where inhibition reaches its midpoint) worked out at 1.6 µM.
Take `N#Cc1cccc(-c2nc3c(Cl)cccn3c2-c2ccnc(NC3CCCC3)n2)c1` [Example 36, 3-{8-Chloro-3-[2-(cyclopentylamino)-4-pyrimidinyl]imidazo[1,2-α]pyridin-2-yl}benzonitrile]: the midpoint of inhibition, the IC50, lay at 0.65 µM.
As to `c1ccc2cc(-c3nc4c(NC5CC5)cccn4c3-c3ccnc(NC4CC4)n3)ccc2c1` [Example 24, N-Cyclopropyl-3-[2-(cyclopropylamino)-4-pyrimidinyl]-2-(2-naphthyl)imidazo[1,2-α]pyridin-8-amine], the 50% inhibitory concentration (IC50) was 0.56 µM.
For `COCCNc1cccn2c(-c3ccnc(NC4CCCC4)n3)c(-c3ccc(C)cc3)nc12` [Example 21, 3-[2-(Cyclopentylamino)-4-pyrimidinyl]-N-(2-methoxyethyl)-2-(4-methylphenyl)imidazo[1,2-α]pyridin-8-amine], the half-maximal inhibitory concentration (IC50) came to 0.64 µM.
Then `Fc1ccc(-c2nc3c(NC4CC4)cccn3c2-c2ccnc(NC3CCCC3)n2)cc1` [Example 51, 3-[2-(cyclopentylamino)-4-pyrimidinyl]-N-cyclopropyl-2-(4-fluorophenyl)imidazo[1,2-a]pyridin-8-amine], with 0.51 µM.
`Fc1ccc(-c2nc3ccc(NC4CCCC4)cn3c2-c2ccnc(NC3CCCC3)n2)cc1` [Example 48, N-Cyclopentyl-3-[2-(cyclopentylamino)-4-pyrimidinyl]-2-(4-fluorophenyl)imidazo[1,2-a]pyridin-6-amine] registered a 50% inhibitory concentration (IC50) of 2.1 µM.
On to `CCCCNc1cc(Br)cn2c(-c3ccnc(NC4CCCC4)n3)c(-c3ccc(F)cc3)nc12` [Example 42, 6-Bromo-N-butyl-3-[2-(cyclopentylamino)-4-pyrimidinyl]-2-(4-fluorophenyl)imidazo[1,2-a]pyridin-8-amine], for which half-maximal inhibition (IC50) required 0.29 µM.
As for `O=C(O)c1cccc(-c2nc3c(NC4CCCC4)cccn3c2-c2ccnc(NC3CCCC3)n2)c1` [Example 55, 3-{8-(Cyclopentylamino)-3-[2-(cyclopentylamino)pyrimidin-4-yl]imidazo[1,2-a]pyridin-2-yl}benzoic acid], it took 7 µM to reach half-maximal inhibition (IC50).
Regarding `Nc1cccn2c(-c3ccnc(NC4CCCC4)n3)c(-c3ccc(F)cc3)nc12` [Example 1, 3-[2-(Cyclopentylamino)-4-pyrimidinyl]-2-(4-fluorophenyl)imidazo[1,2-α]pyridin-8-amine], the IC50 was found to be 0.6 µM.
Then `Cc1cccn2c(-c3ccnc(NC4CCCC4)n3)c(-c3ccc(F)cc3)nc12` [Example 46, N-Cyclopentyl-4-[2-(4-fluorophenyl)-8-methylimidazo[1,2-a]pyridin-3-yl]-2-pyrimidinamine], with 1.5 µM; and `NC(=O)c1ccc(-c2nc3c(N4CCOCC4)cccn3c2-c2ccnc(NC3CCCC3)n2)cc1` [Example 28, 4-[3-[2-(Cyclopentylamino)-4-pyrimidinyl]-8-(4-morpholinyl)imidazo[1,2-α]pyridin-2-yl]benzamide], with 6.3 µM.

The values above are taken from patent publication US7186714B2, “Imidazo[1,2-α]pyridine derivatives for the prophylaxis and treatment of herpes viral infections” (SmithKline Beecham Corporation, priority 2001, dated 2007).
